In ChEMBL document CHEMBL4052701, “Bioactive new withanolides from the cultured soft coral Sinularia brassica” (Bioorg Med Chem Lett, 2017):

How the values were obtained:
[1] = tested on: HT-29; assay: Cytotoxicity against human HT-29 cells incubated for 72 hrs by alamar blue assay; assay type: functional, cell-based; conditions: HT-29, 72 h
[2] = tested on: Neutrophil; assay: Antiinflammatory activity in human neutrophils assessed as inhibition of fMLP/CB-induced superoxide anion generation by measuring superoxide […] dismutase inhibitable reduction of ferricytochrome c incubated for 5 mins; assay type: functional, cell-based
[3] = tested on: Neutrophil; assay: Antiinflammatory activity in human neutrophils assessed as inhibition of fMLP/CB-induced elastase release at 10 uM incubated for 5 mins in presence of MeO-Suc-Ala-Ala-Pro-Val-p-nitroanilide; assay type: functional
[4] = tested on: Neutrophil; assay: Antiinflammatory activity in human neutrophils assessed as inhibition of fMLP/CB-induced superoxide anion generation by measuring superoxide […] dismutase inhibitable reduction of ferricytochrome c at 10 uM incubated for 5 mins; assay type: functional
[5] = tested on: Neutrophil; assay: Antiinflammatory activity in human neutrophils assessed as inhibition of fMLP/CB-induced elastase release incubated for 5 mins in presence of MeO-Suc-Ala-Ala-Pro-Val-p-nitroanilide; assay type: functional, cell-based
[6] = tested on: MOLT-4; assay: Cytotoxicity against human MOLT4 cells incubated for 72 hrs by alamar blue assay; assay type: functional, cell-based; conditions: MOLT-4, 72 h
[7] = tested on: K562; assay: Cytotoxicity against human K562 cells incubated for 72 hrs by alamar blue assay; assay type: functional, cell-based; conditions: K562, 72 h
[8] = tested on: P388; assay: Cytotoxicity against mouse P388 cells incubated for 72 hrs by alamar blue assay; assay type: functional, cell-based; conditions: P388, 72 h

SMILES | IC50 [1] [µM] | IC50 [2] [µM] | inhibition at 10 µM [3] [%] | inhibition at 10 µM [4] [%] | IC50 [5] [µM] | IC50 [6] [µM] | IC50 [7] [µM] | IC50 [8] [µM]
C[C@H]1[C@H]2[C@H](C[C@H]3[C@@H]4CCC5=CC(=O)C=C[C@]5(C)[C@H]4CC[C@]23C)O[C@]2(OC(=O)[C@H](C)[C@H]2C)[C@H]1O | 24.4 | > 10 | 32.4 | 14.4 | > 10 | 28.6 | 29.7 | 39.8
C[C@@H]([C@H]1CC[C@H]2[C@@H]3CCC4=CC(=O)C=C[C@]4(C)[C@H]3CC[C@]12C)[C@H]1C[C@H](C)[C@@H](C)C(=O)O1 | > 40 | > 10 | 25 | 26.3 | > 10 | > 40 | > 40 | > 40
C[C@H]1[C@H]([C@@]2(O)O[C@H]3C[C@H]4[C@@H]5CCC6=CC(=O)C=C[C@]6(C)[C@H]5CC[C@]4(C)[C@H]3[C@@H]2C)OC(=O)[C@@H]1C | 11.2 | > 10 | 9.5 | 32.1 | > 10 | 17.2 | 12.6 | 18.7
O=c1[nH]cc(F)c(=O)[nH]1 [FLUOROURACIL] | 7.2 | – | – | – | – | 6.2 | 30.5 | 5.8
C[C@@H]1[C@H]([C@H]2OC(=O)[C@@H](C)[C@H]2C)O[C@H]2C[C@H]3[C@@H]4CCC5=CC(=O)C=C[C@]5(C)[C@H]4CC[C@]3(C)[C@@H]12 | 18.7 | 3.5 | 114 | 87.7 | 1.4 | 12.1 | 8.7 | 29.9
C[C@@H]1C(=O)[C@@]2(OC(=O)[C@H](C)[C@H]2C)O[C@H]2C[C@H]3[C@@H]4CCC5=CC(=O)C=C[C@]5(C)[C@H]4CC[C@]3(C)[C@H]21 | > 40 | > 10 | 12.5 | 17.3 | > 10 | > 40 | > 40 | > 40
CC[C@H](Nc1ncnc2[nH]cnc12)c1nc2cccc(F)c2c(=O)n1-c1ccccc1 [IDELALISIB] | – | 0.07 | 99.6 | 103 | 0.3 | – | – | –
C[C@H]1[C@H]2[C@H](C[C@H]3[C@@H]4CCC5=CC(=O)C=C[C@]5(C)[C@H]4CC[C@]23C)O[C@@]2(OC(=O)[C@@H](C)[C@H]2C)[C@H]1O | 20.5 | > 10 | 11.4 | 34.3 | > 10 | 13.7 | 17.4 | 18.3
